According to patent publication US20060063784A1, “Method of using substituted pyrazolo [1,5-a] pyrimidines” (priority 2004, published 2006):
pIC50: −log10 of the molar value.

Tests used:
LoVo Colon cell line = assay: Cytotoxicity assay using LoVo colon cell line, SRB; assay type: cell-based; details: Homo sapiens, 96 h; Cellular activity in LoVo cell; 4 days incubation, SRB; read-out: Inhibition of LoVo
Procedure, shortened: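 Growth inhibition read by sulforhodamine B after 4-day compound exposure at 37 °C. Colon LoVo cells plated at 4000 per well in RPMI/10% FBS a day earlier; doses ranged 5 pM-20 μM or 170 pg/ml-10 μg/ml. IC50 is the concentration halving proliferation versus untreated wells.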

[1] = tested on: 80S14 (p21-deficient) cells; assay: Cytotoxicity assay using isogenic cell lines: IC50 in 80S14 (p21-deficient) cells, SRB; assay type: cell-based, human; details: Homo sapiens, 120 h; 80S14 (p21-deficient) cells, 5 days, SRB; class symbols; read-out: IC50 for 80S14
Procedure, shortened: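 IC50 is the concentration halving proliferation relative to untreated controls, read from SRB absorbance (560 nm) after TCA fixation. Test agent dilutions (5 pM–50 μM or 170 pg/ml–10 μg/ml) were left on p21-deficient 80S14 cells (12,000/well, pre-incubated overnight) for 5 days at 37 °C.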

melting point: 212 to 215 °C
SMILES: O=C(Nc1cccc(-c2ccnc3c(C(=O)c4cccs4)cnn23)c1)c1ccncc1 [Example 291, N-{3-[3-(2-Thienylcarbonyl)pyrazolo[1,5-a]pyrimidin-7-yl]phenyl}isonicotinamide]
pIC50 (LoVo Colon cell line): > 7.00
pIC50 [1]: > 6.00
